# Reference: ChEMBL document CHEMBL1201862, “PubChem BioAssay data set” (2004)
#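 Values below derive from 48-hour exposures of cells grown in 96-well plates, with endpoints linearly interpolated between the two concentrations bracketing the appropriate inhibition level. GI50 = concentration required for 50% inhibition of growth.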 Activity calls are given as the source filed them. Rule as the data show it: active = GI50 up to about 1.1 µM and inactive = higher.
# What was measured:
# Test in all cases: NCI tumour cell line growth inhibition, 48 h
# Hs-578T = test system: Hs-578T
# OVCAR-5 = test system: OVCAR-5
# NCI/ADR-RES = test system: NCI/ADR-RES
# CAKI-1 = test system: CAKI-1
# HT-29 = test system: HT-29
# OVCAR-3 = test system: OVCAR-3
# RXF 393 = test system: RXF 393
# SR = test system: SR
# BT-549 = test system: BT-549
# 786-0 = test system: 786-0
# MOLT-4 = test system: MOLT-4
# PC-3 = test system: PC-3
# RPMI-8226 = test system: RPMI-8226
# MDA-N = test system: MDA-N
# A498 = test system: A498
# HOP-92 = test system: HOP-92
# SK-MEL-5 = test system: SK-MEL-5
# MDA-MB-231 = test system: MDA-MB-231
SMILES,GI50 (Hs-578T),GI50 (OVCAR-5),GI50 (NCI/ADR-RES),GI50 (CAKI-1),GI50 (HT-29),GI50 (OVCAR-3),GI50 (RXF 393),GI50 (SR),GI50 (BT-549),GI50 (786-0),GI50 (MOLT-4),GI50 (PC-3),GI50 (RPMI-8226),GI50 (MDA-N),GI50 (A498),GI50 (HOP-92),GI50 (SK-MEL-5),GI50 (MDA-MB-231)
CCN(CC)CCn1nc(N)c2nc3ccccc3nc21,> 100 µM (inactive),> 100 µM (inactive),> 100 µM (inactive),72.6 µM (inactive),> 100 µM (inactive),> 100 µM (inactive),> 100 µM (inactive),59.8 µM (inactive),> 100 µM (inactive),> 100 µM (inactive),63.7 µM (inactive),> 100 µM (inactive),> 100 µM (inactive),> 100 µM (inactive),> 100 µM (inactive),> 100 µM (inactive),–,–
O=[N+]([O-])c1ccc(C2c3c(O)nc(O)nc3Oc3nc(O)nc(O)c32)cc1,> 100 µM (inactive),> 100 µM (inactive),–,> 100 µM (inactive),> 100 µM (inactive),> 100 µM (inactive),8.36 µM (inactive),–,> 100 µM (inactive),> 100 µM (inactive),–,> 100 µM (inactive),28.8 µM (inactive),> 100 µM (inactive),> 100 µM (inactive),–,> 100 µM (inactive),> 100 µM (inactive)
CC(=O)NCCCCN(CCCNC(C)=O)C(=O)CNS(=O)(=O)c1cccc2c(N(C)C)cccc12,> 100 µM (inactive),> 100 µM (inactive),–,–,> 100 µM (inactive),> 100 µM (inactive),> 100 µM (inactive),> 100 µM (inactive),> 100 µM (inactive),> 100 µM (inactive),> 100 µM (inactive),> 100 µM (inactive),> 100 µM (inactive),> 100 µM (inactive),> 100 µM (inactive),> 100 µM (inactive),> 100 µM (inactive),> 100 µM (inactive)
O=C1CN(c2ccc(Cl)cc2)C(=O)CN1CCN1CC(=O)N(c2ccc(Cl)cc2)CC1=O,> 100 µM (inactive),> 100 µM (inactive),–,> 100 µM (inactive),> 100 µM (inactive),> 100 µM (inactive),> 100 µM (inactive),> 100 µM (inactive),> 100 µM (inactive),> 100 µM (inactive),> 100 µM (inactive),> 100 µM (inactive),> 100 µM (inactive),> 100 µM (inactive),> 100 µM (inactive),> 100 µM (inactive),> 100 µM (inactive),–
Cc1cn2c(/C=N/NC(=N)N)c(-c3cccc([N+](=O)[O-])c3)nc2s1,2.38 µM (inactive),2.07 µM (inactive),28.4 µM (inactive),2.42 µM (inactive),0.514 µM (active),1.26 µM (inactive),1.15 µM (inactive),1.77 µM (inactive),1.75 µM (inactive),1.47 µM (inactive),1.77 µM (inactive),1.74 µM (inactive),3.2 µM (inactive),–,1.48 µM (inactive),1.64 µM (inactive),1.63 µM (inactive),1.41 µM (inactive)
O=[N+]([O-])c1ccc(SN=S=NSc2cccc(SN=S=NSc3ccc([N+](=O)[O-])cc3)c2)cc1,58.3 µM (inactive),25.4 µM (inactive),28 µM (inactive),19 µM (inactive),33.2 µM (inactive),62.1 µM (inactive),–,26.8 µM (inactive),19.3 µM (inactive),13.8 µM (inactive),10.2 µM (inactive),16.6 µM (inactive),27.7 µM (inactive),30.8 µM (inactive),94.8 µM (inactive),> 100 µM (inactive),28.4 µM (inactive),–
Cc1ccc(C)n2c1nc1ccc3ccccc3c12,49.9 µM (inactive),> 100 µM (inactive),> 100 µM (inactive),–,> 100 µM (inactive),> 100 µM (inactive),> 100 µM (inactive),> 100 µM (inactive),> 100 µM (inactive),> 100 µM (inactive),> 100 µM (inactive),67.9 µM (inactive),> 100 µM (inactive),> 100 µM (inactive),–,40.6 µM (inactive),50.2 µM (inactive),–
